| Compound | melting point |
| --- | --- |
| CSCCCn1cc(C(=O)NCC(C)(C)C)c2ccc(Cl)c(Cl)c21 | 170 to 173 °C |
| CCC(C)(C)NC(=O)c1cn(CCCSC)c2c(Cl)c(Cl)ccc12 | 100 to 103 °C |
| CC(C)(C)CNC(=O)c1cn(CCCS(C)(=O)=O)c2c(Cl)c(Cl)ccc12 | 208 to 211 °C |

Reference: patent US7202268B2, “Derivatives of indole-3-carboxamide, preparation method thereof and application of same in therapeutics” (Sanofi-aventis, priority 2002, dated 2007)
